# How the values were obtained:
# Format in all cases: functional
# [1] = biological target: T1, Cdk-related protein kinase 6 (Plasmodium falciparum, UniProt O77239); test: Final concentrations were 1.5 uM ATP, 5 mM MnCl2, and 15 ug/ml PK6 in a buffer of 100 mM Tris-HCl (pH 7.5). 50 ug/mL MBP was provided as the substrate; 10 uM staurosporine was used as a control inhibitor. Incubation time was 3 hours and 40 minutes.The catalytic activity of each kinase was considered proportional to ATP consumed, as determined from measurements of residual [ATP] with the luciferase-based reagent Kinase-Glo (Promega) following incubation. Luminescence (proportional to residual [ATP]) was measured on the plate readers FLx800 (BioTek Instruments, Winooski, VT, USA) and MicroBeta2.
# T1 sequence (O77239 whole entry): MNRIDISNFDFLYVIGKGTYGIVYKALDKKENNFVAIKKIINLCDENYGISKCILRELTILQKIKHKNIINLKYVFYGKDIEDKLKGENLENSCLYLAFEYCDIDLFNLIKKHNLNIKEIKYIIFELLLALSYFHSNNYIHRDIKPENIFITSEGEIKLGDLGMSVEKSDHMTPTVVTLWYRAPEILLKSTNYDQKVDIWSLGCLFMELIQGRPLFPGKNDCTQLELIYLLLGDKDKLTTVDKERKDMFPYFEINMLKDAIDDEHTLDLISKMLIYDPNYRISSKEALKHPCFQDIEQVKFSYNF
# [2] = biological target: Calcium-dependent protein kinase 1 (Plasmodium falciparum, UniProt P62344); test: MMV: CDPK1 Protein kinase inhibition assay using recombinant PfCDPK1, syntide 2 peptide substrate, ATP and KinaseGlo to measure % inhibition at 1 uM MMV box compound.
# Sequence of Calcium-dependent protein kinase 1 (P62344 whole entry): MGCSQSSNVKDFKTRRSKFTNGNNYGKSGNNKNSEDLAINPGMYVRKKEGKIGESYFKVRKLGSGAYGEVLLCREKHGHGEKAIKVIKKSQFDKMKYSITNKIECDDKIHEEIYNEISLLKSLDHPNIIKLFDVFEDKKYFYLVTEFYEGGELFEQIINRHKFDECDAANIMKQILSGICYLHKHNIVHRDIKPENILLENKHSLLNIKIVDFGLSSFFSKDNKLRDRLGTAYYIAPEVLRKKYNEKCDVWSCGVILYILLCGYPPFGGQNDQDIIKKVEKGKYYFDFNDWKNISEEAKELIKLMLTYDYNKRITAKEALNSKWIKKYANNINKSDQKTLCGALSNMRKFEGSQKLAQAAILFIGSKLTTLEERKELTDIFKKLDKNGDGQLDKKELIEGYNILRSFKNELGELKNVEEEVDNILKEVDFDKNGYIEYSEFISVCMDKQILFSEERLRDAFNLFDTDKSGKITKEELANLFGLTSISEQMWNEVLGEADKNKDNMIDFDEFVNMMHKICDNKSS
# Proline--tRNA ligase = biological target: T2, Proline--tRNA ligase (Plasmodium falciparum (isolate 3D7), UniProt Q8I5R7); test: MMV: ProRS recombinant Plasmodium falciparum Prolyl-tRNA-synthetase, assay with yeast tRNA, ATP, and proline and 3 uM MMV malaria box compound, assay read out with kinase glo as % inhibition.
# T2 sequence (Q8I5R7 whole entry): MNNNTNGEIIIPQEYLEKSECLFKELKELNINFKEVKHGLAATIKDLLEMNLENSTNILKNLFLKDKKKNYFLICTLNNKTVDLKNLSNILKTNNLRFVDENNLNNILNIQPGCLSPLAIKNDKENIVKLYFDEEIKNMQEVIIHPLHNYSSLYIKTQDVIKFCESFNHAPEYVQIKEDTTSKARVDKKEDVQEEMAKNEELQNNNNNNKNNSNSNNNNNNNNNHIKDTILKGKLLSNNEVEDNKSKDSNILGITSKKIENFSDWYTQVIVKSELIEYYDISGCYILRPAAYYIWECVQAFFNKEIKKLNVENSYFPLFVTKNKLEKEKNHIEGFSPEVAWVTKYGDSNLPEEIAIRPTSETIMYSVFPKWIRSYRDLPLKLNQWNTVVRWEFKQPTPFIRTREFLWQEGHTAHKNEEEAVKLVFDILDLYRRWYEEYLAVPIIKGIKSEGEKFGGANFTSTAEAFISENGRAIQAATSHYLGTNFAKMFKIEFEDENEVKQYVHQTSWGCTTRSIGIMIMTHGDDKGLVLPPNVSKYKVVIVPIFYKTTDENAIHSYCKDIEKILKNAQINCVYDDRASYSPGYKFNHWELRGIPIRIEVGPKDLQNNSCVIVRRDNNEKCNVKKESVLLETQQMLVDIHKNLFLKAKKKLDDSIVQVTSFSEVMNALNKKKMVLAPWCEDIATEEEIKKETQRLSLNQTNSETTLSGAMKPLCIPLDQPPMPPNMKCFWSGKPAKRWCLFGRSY
# [3] = biological target: T3, Putative uncharacterized protein pk7 (Plasmodium falciparum, UniProt O96214); test: Final concentrations were 1 uM ATP, 2 mM DTT, 20 mM MgCl2, 2 mM MnCl2, 0.01% BSA, and 6 ug/ml PK7, in a buffer of 20 mM Tris-HCl (pH 7.5). The enzyme itself was the only substrate present (since autophosphorylation occurs); 100 uM 1NA-PP1 was used as a control inhibitor. Incubation time was 3 hours.
# T3 sequence (O96214 whole entry): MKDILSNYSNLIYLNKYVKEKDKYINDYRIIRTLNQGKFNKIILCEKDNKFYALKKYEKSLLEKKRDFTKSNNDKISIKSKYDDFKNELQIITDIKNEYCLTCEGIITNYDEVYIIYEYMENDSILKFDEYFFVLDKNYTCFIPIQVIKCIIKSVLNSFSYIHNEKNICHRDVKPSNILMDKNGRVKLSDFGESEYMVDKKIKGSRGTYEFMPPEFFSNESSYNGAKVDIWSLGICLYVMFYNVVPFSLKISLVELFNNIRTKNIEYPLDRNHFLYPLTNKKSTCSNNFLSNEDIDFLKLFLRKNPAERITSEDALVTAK
# [4] = biological target: T4, Mitogen-activated protein kinase (Plasmodium falciparum, UniProt Q25917); test: Final concentrations were 1 uM ATP, 0.5 mM DTT, 1 mM MgCl2, 0.5 mg/mL BSA, and 10 ug/ml MAP2 in a buffer of 50 mM HEPES (pH 7.0). 0.5 mg/mL histone III-S served as the substrate (13); 100 uM AMP-PNP, an ATP analog, was used as a control inhibitor. Incubation time was 4 hours.
# T4 sequence (Q25917 whole entry): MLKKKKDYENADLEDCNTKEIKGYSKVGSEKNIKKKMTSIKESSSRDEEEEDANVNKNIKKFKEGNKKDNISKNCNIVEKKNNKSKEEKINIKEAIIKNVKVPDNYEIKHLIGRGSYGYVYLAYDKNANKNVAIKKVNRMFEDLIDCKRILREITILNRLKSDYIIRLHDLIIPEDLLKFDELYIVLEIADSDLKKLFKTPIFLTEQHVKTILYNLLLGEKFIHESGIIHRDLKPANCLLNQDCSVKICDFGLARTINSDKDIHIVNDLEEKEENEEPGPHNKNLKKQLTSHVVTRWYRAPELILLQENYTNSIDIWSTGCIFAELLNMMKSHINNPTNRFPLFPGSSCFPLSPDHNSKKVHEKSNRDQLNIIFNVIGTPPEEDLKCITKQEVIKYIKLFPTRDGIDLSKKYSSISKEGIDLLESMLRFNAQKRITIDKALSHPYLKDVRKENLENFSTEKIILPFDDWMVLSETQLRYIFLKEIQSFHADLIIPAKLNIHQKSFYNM
# [5] = biological target: T5, Calcium-dependent protein kinase 4 (Plasmodium falciparum (isolate 3D7), UniProt Q8IBS5); test: MMV: CDPK4 Protein kinase inhibition assay using recombinant PfCDPK4, syntide2 peptide substrate, ATP and KinaseGlo to measure % inhibition at 1 uM MMV box compound.
# T5 sequence (Q8IBS5 whole entry): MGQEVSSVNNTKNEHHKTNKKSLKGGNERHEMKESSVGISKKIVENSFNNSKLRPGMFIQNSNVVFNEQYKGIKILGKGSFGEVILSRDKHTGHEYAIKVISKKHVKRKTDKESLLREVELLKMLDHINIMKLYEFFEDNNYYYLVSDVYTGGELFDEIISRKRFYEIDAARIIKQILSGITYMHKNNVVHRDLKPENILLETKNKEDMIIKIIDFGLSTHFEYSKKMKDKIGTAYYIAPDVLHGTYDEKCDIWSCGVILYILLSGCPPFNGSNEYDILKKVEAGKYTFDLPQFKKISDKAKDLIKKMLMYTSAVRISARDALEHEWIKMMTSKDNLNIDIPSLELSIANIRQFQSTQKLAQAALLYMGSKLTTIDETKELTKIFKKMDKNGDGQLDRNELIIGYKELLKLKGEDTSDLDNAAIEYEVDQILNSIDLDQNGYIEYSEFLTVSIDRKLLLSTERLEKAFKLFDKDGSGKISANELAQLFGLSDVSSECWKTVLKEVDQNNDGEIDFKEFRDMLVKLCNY
# Lysine--tRNA ligase = Lysine--tRNA ligase (Plasmodium falciparum (isolate 3D7), UniProt Q8IDJ8); test: MMV: KRS recombinant Plasmodium falciparum Lysyl-tRNA-synthetase, assay with yeast tRNA, ATP, and lysine and 3 uM MMV malaria box compound, assay read out with kinase glo as % inhibition.
# Sequence of Lysine--tRNA ligase (Q8IDJ8 whole entry): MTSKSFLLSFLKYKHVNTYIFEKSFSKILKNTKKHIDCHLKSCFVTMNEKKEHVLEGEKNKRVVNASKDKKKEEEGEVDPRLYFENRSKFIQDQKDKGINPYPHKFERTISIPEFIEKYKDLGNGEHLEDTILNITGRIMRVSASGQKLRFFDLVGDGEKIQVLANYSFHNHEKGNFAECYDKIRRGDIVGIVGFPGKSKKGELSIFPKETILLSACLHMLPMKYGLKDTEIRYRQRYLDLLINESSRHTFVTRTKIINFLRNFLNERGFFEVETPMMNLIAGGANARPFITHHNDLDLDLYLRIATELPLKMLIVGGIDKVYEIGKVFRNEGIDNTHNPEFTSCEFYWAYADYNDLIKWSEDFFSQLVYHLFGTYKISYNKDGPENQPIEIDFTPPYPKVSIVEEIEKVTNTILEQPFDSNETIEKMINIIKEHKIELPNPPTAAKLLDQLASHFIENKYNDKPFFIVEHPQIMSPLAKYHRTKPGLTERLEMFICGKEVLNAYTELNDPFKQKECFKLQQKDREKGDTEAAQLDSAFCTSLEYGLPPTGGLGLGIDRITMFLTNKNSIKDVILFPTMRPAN
SMILES,IC50 [1] [nM],IC50 [2] [nM],IC50 (Proline--tRNA ligase) [nM],IC50 [3] [nM],IC50 [4] [nM],IC50 [5] [nM],IC50 (Lysine--tRNA ligase) [nM]
O=C(NC1CCCCC1)C(c1cccs1)N(CCc1ccccc1)C(=O)c1ccco1 (configuration not stated),> 1000,> 1000,> 2500,> 1000,> 1000,> 1000,> 2500
c1ccc2c(NCCCCCCNc3c4c(nc5ccccc35)CCCC4)c3c(nc2c1)CCCC3,> 1000,> 1000,> 2500,> 1000,> 1000,> 1000,> 2500
Nc1ccc(-c2nc3cc(Cc4ccc5[nH]c(-c6ccc(N)cc6)nc5c4)ccc3[nH]2)cc1,> 1000,> 1000,> 2500,> 1000,> 1000,> 1000,> 2500
CCCCOC(=O)c1ccc(Nc2cc(C)nc3ccc(OC)cc23)cc1,> 1000,> 1000,> 2500,> 1000,> 1000,> 1000,> 2500
COc1cc(-c2nc(-c3ccc(Sc4ccccc4)cc3)c(-c3ccccc3)[nH]2)cc(OC)c1O,> 1000,> 1000,> 2500,> 1000,> 1000,> 1000,> 2500
COc1ccc(C2NCCc3c2[nH]c2ccccc32)cc1CN1CCN(c2ccc(F)cc2)CC1 (configuration not stated),> 1000,> 1000,> 2500,> 1000,> 1000,> 1000,> 2500
CCOc1ccc(-n2cc(-c3ccccc3)c3c(SCc4cc(C)ccc4C)ncnc32)cc1,> 1000,> 1000,> 2500,> 1000,> 1000,> 1000,> 2500
Cc1ccc(C)c(Cn2c(N3CCC(C(=O)NCc4cccs4)CC3)nc3ccccc32)c1,> 1000,> 1000,> 2500,> 1000,> 1000,> 1000,> 2500
Cc1ccccc1OCCSc1nc2ccc(NC(=O)c3cccs3)cc2s1,> 1000,> 1000,> 2500,> 1000,> 1000,> 1000,> 2500
c1ccc2c(NCCc3c[nH]c4ccccc34)c3ccccc3nc2c1,> 1000,> 1000,> 2500,> 1000,> 1000,> 1000,> 2500
CCN(CC)CCCNc1ccnc2cc3ccccc3cc12,> 1000,> 1000,> 2500,> 1000,> 1000,> 1000,> 2500
O=C(Nc1ccc(-c2nc3cc4ccccc4cc3[nH]2)cc1)c1cccc(Br)c1,> 1000,> 1000,> 2500,> 1000,> 1000,> 1000,> 2500
COc1ccc(C(O)(CCC(C)C)C(CN2CCOCC2)c2ccc(Cl)cc2)cc1 (configuration not stated),> 1000,> 1000,> 2500,> 1000,> 1000,> 1000,> 2500
CCCOCc1cc(CN2CCN(c3cccc(Cl)c3)CC2)c(O)c2ncccc12,> 1000,> 1000,> 2500,> 1000,> 1000,> 1000,> 2500
COc1ccc(C(=O)NC(c2ccccc2Cl)c2cc(Cl)c3cccnc3c2O)cc1 (configuration not stated),> 1000,> 1000,> 2500,> 1000,> 1000,> 1000,> 2500
CCCc1c(C)nc2ccc(Br)cc2c1O,> 1000,> 1000,> 2500,> 1000,> 1000,> 1000,> 2500
Cc1ccc(F)cc1NC(=O)c1cc(Cl)ccc1Nc1ccccc1,> 1000,> 1000,> 2500,> 1000,> 1000,> 1000,> 2500
CCCCCCC(O)(c1ccc(F)cc1)C(CN1CCOCC1)c1ccccc1 (configuration not stated),> 1000,> 1000,> 2500,> 1000,> 1000,> 1000,> 2500
COc1cc(OC)cc(N2C(=O)N(Cc3ccc(C(C)(C)C)cc3)c3ccccc3S2(=O)=O)c1,> 1000,> 1000,> 2500,> 1000,> 1000,> 1000,> 2500
CCOc1c(Br)cc(C2C(C(=O)OC)=CN(C)C=C2C(=O)OC)cc1OC,> 1000,> 1000,> 2500,> 1000,> 1000,> 1000,> 2500
CCOC(=O)c1c[nH]c2c(CC)cccc2c1=O,> 1000,> 1000,> 2500,> 1000,> 1000,> 1000,> 2500

# — ChEMBL document CHEMBL3301562, “MMV Box screening against Plasmodium falciparum protein kinases and aminoacyl tRNA synthetases”
